Test results from ChEMBL document CHEMBL1150545, “CP-71,362, an unusually potent inhibitor of rat and dog renin” (Bioorg Med Chem Lett, 1994).
*1 amine or outer side, *2 acyl side, *3 side chain or, on linkers, in order; H or OH if unused. Where a SMILES comes first, the peptide text is derived from it. [ ]: non-standard residue; d: D form. The star is where a group is joined. X1 = CC(C)C[C@H](C[C@H](O)[C@H](CC1CCCCC1)N[*:1])C(=O)[*:2]; Boc = CC(C)(C)OC(=O)*

Key:
Renin [1] = target: T1, Renin (Rattus norvegicus, UniProt P08424); assay: Compound was tested for its inhibitory activity against Rat plasma renin; format: cell-free
T1 sequence (P08424 whole entry): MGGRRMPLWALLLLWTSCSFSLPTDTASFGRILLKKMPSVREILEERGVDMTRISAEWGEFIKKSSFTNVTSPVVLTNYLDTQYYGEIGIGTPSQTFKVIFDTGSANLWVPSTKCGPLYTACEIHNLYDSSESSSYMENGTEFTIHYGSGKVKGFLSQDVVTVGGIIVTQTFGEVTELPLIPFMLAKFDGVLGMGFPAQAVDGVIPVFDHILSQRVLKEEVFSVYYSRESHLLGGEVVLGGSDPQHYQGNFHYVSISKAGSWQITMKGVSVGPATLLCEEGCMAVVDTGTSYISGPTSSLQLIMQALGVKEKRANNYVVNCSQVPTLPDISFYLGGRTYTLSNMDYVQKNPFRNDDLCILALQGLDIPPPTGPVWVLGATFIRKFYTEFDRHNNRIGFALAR

Renin (Canis familiaris) = assay: Compound was tested for its inhibitory activity against dog plasma renin
Rattus norvegicus [2] = species on record: Rattus norvegicus; assay: Infusion rate producing a decrease in MAP of between 30 and 40 mmHg in the rat; format: functional
Rattus norvegicus [3] = species on record: Rattus norvegicus; assay: Infusion rate producing half of the maximal decrease in renin dependent blood pressure in rats; format: functional
Canis familiaris [4] = species on record: Canis familiaris; assay: Infusion rate producing half of the maximal decrease in renin dependent blood pressure in dogs; format: functional, Canis lupus familiaris
Canis familiaris [5] = assay: Decrease in mean arterial pressure in anesthetized, sodium depleted dogs, at 3.7+/0.4 ug/Kg/min infusion rate; format: functional, Canis lupus familiaris, Artery
Renin [6] = target: T2, Renin (Homo sapiens, UniProt P00797); assay: Compound was tested for its inhibitory activity against human plasma renin; format: cell-free
T2 sequence (P00797 whole entry): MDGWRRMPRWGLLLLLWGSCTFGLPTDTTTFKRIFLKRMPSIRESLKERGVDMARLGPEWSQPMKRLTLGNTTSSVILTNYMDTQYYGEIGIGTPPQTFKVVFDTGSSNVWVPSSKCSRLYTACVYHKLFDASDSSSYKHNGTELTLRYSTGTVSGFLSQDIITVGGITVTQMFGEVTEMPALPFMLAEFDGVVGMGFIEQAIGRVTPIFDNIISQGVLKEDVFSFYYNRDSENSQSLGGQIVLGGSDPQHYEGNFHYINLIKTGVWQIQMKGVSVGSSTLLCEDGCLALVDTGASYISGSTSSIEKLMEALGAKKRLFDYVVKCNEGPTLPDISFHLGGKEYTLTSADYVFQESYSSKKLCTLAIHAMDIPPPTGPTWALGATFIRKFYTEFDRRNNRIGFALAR

CC(=O)O.CC(C)C[C@H](C[C@H](O)[C@H](CC1CCCCC1)NC(=O)[C@H](Cc1c[nH]cn1)NC(=O)[C@H](Cc1ccccc1)NC(=O)OC(C)(C)C)C(=O)N[C@@H](CCCCN)C(=O)N[C@@H](Cc1ccccc1)C(=O)O (Boc-FH[X1]KF-OH)
IC50 (Renin [1]): 3 nM
IC50 (Renin (Canis familiaris)): 0.03 nM
Infusion rate (Rattus norvegicus [2]): 30 µg/min/kg
Infusion rate (Rattus norvegicus [3]): 9.7 µg/min/kg
Infusion rate (Canis familiaris [4]): 1.1 µg/min/kg
MAP (Canis familiaris [5]): 35 mmHg
IC50 (Renin [6]): 20 nM
